Results as given in article PMC4885489, “Prediction of Drug-Drug Interactions Arising from CYP3A induction Using a Physiologically Based Dynamic Model” (Drug Metabolism and Disposition, 2016).
pEC50, pKi: −log10 of the molar value. Where “and” joins values, the source holds several entries; their conditions need not be identical. Equal values may be shown once. Read-outs that look alike come from different tables or passages of the source.

Experiments:
[1] = cited from earlier work
[2] = tested on: CYP3A4; experiment: Rifampicin-mediated clinical drug-drug interaction studies with CYP3A4 probe substrates; format: in vivo, human; details: for reduction in MDZ AUC, median: rifampicin, across clinical studies of Table 3; for fold induction: human, plasma, read-out: Geometric mean fold induction
[3] = tested on: CYP3A4; details: human, in vivo, po, cited from earlier work
[4] = cited from earlier work; remark: listed apart in the source
[5] = cited from earlier work; remark: listed apart in the source
[6] = tested on: rCYP3A5; details: cited from earlier work; for Km: read-out: rCYP3A5 Km
[7] = tested on: rUGT1A4; details: corrected for fumic & ISEF, ref Meta-analysis (Emoto et al., 2003), (Galetin et al., 2004) and 7 others incl. (Hyland et al., 2009), cited from earlier work
[8] = tested on: CYP3A; details: mean of four human hepatocyte donors; three-parameter fit; Indmax = Emax + 1
[9] = tested on: CYP3A; details: mean of four human hepatocyte donors; three-parameter fit; Indmax = Emax + 1; remark: listed apart in the source
[10] = tested on: HLM; set-up: method as in ref (Pearce et al., 2002); details: Other enzymes were combined; ref (Pearce et al., 2002); cited from earlier work
[11] = tested on: rCYP2C8; set-up: method as in ref (Cazali et al., 2003); details: ref (Cazali et al., 2003); cited from earlier work
[12] = tested on: rUGT2B7; set-up: method as in ref (Staines et al., 2004); details: ref (Staines et al., 2004); cited from earlier work
[13] = tested on: CYP3A; experiment: in vitro; details: human, cryopreserved human hepatocytes, probe testosterone (6β-hydroxytestosterone formation)
[14] = tested on: CYP3A; experiment: in vitro; details: human, cryopreserved human hepatocytes
[15] = cited from earlier work; remark: listed apart in the source
[16] = ref Meta-analysis (Bonneton et al., 1992); (de Groot et al., 1984); cited from earlier work
[17] = Neutral; ref (Zhu et al., 2002); (Lombardo et al., 2000); (Henczi et al., 1995) and 4 others; cited from earlier work
[18] = tested on: rCYP3A4; details: ref (Cazali et al., 2003), (Huang et al., 2004), cited from earlier work
[19] = tested on: HLM; experiment: Additional (unassigned) intrinsic clearance; details: Added to recover degree of auto-induction via enzymes other than CYP3A4
[20] = tested on: CYP3A4; details: human, in vivo, cited from earlier work
[21] = tested on: rCYP1A2; details: corrected for fumic & ISEF, ref (Von Moltke et al., 1999), cited from earlier work; for Km: read-out: rCYP1A2 Km
[22] = tested on: rCYP2C9; details: corrected for fumic & ISEF, ref (Von Moltke et al., 1999), cited from earlier work; for Km: read-out: rCYP2C9 Km
[23] = tested on: rCYP2C19; details: M3, corrected for fumic & ISEF, ref (Von Moltke et al., 1999), cited from earlier work
[24] = tested on: rCYP2D6; details: corrected for fumic & ISEF, ref (Von Moltke et al., 1999), cited from earlier work; for Km: read-out: rCYP2D6 Km
[25] = tested on: rCYP2J2; details: corrected for fumic & ISEF, ref (Von Moltke et al., 1999), cited from earlier work; for Km: read-out: rCYP2J2 Km
[26] = tested on: CYP2D6; set-up: method as in ref (Ching et al., 1995); (Broly et al., 1989); (Lalovic et al., 2004); details: ref (Ching et al., 1995); (Broly et al., 1989); (Lalovic et al., 2004); cited from earlier work
[27] = tested on: CYP3A4; details: read-out: CYP3A4 Ki; ref (Nielsen et al., 1999); (Ngui et al., 2000); (Guengerich et al., 1986); cited from earlier work
[28] = 1-hydroxylation, corrected for fumic & ISEF, ref Meta-analysis (Emoto et al., 2003), (Galetin et al., 2004) and 7 others
[29] = 4-hydroxylation, corrected for fumic & ISEF, ref Meta-analysis (Emoto et al., 2003), (Galetin et al., 2004) and 7 others

## C=C[C@@]1(O)CN2CC[C@H]1C[C@@H]2[C@@H](O)c1ccnc2ccc(OC)cc12 [3-OH Quinidine]
[1]; in vivo
  CLR: 16.7 L/h
  CLpo: 52.6 L/h

## Cc1ncc2n1-c1ccc(Cl)cc1C(c1ccccc1F)=NC2 [Midazolam, midazolam]
[2]; MDZ administered orally, listed as MDZ
  reduction in MDZ AUC, median: 17.5 fold and 18.1 fold
[2]; MDZ i.v. administration
  reduction in MDZ AUC, median: 2.0 fold
[2]; iv
  fold induction: 1.99
[2]; po
  fold induction: 18.1
[2]; meta-analysis of studies where midazolam was administered orally with rifampicin
  1/AUC ratio, CI of the observations: 5.4-60.4
[3]; 0.075 mg
  AUC ratio: 2.3 fold
[4]; ref (Allonen et al., 1981)
  ka: 3 h⁻¹
[5]; in vivo
  Vss (Minimal PBPK): 1 L/kg
[1]; in vivo
  CLR: 0.085 L/h
  Fe: 0.0033
[6]; [28]
  rCYP3A5 Vmax: 19.7 µL/min/pmol
  Km: 4.16 µM
[6]; [29]
  rCYP3A5 Vmax: 4.03 µL/min/pmol
  Km: 34.8 µM
[7]
  rUGT1A4 Vmax: 445 µL/min/mg
[7]; read-out: rUGT1A4 Km
  Km: 40.3 µM

## NC(=O)N1c2ccccc2C=Cc2ccccc21 [Carbamazepine, carbamazepine]
[8]
  Activity Indmax: 16.6 fold
[9]
  mRNA Indmax: 21.9 fold
[10]
  Add HLM CLint: 0.255 µL/min/mg
[11]
  Km: 742 µM
  rCYP2C8 Vmax: 0.03 pmol/min/pmol
[12]
  Km: 25.4 µM
  rUGT2B7 Vmax: 4.18 pmol/min/pmol
[13]
  pEC50: 4.23
[14]
  pEC50: 4.23
[15]; ref Meta-analysis (Grimsley et al., 1991), (Di Salle et al., 1974), (Rawlins et al., 1975) and 4 others
  fu: 0.25
[16]
  B:P: 1.07
[17]
  logP: 2.22
[4]; ref (Geradin et al., 1976), (Grimsley et al., 1991), (Olling et al., 1999), (Wong et al., 1983)
  ka: 0.5 h⁻¹
[4]; ref (Tchaparian et al., 2008), (Faigle and Feldmann, 1975), (Levy et al., 1975)
  fa: 0.84
[5]; ref (Ramsay et al., 1990)
  Vss (Minimal PBPK): 0.78 L/kg
[1]; parent carbamazepine, ref (Kim et al., 2005)
  CLR: 0.0084 L/h
[18]; read-out: rCYP3A4 Km
  Km: 180 µM
[18]
  rCYP3A4 Vmax: 0.72 pmol/min/pmol
[6]; ref (Huang et al., 2004)
  Km: 332 µM
  rCYP3A5 Vmax: 1.44 pmol/min/pmol
[19]
  Add rCYP CLint: 0.010 µL/min/pmol

## Cc1ccc(-c2nc3ccc(C)cn3c2CC(=O)N(C)C)cc1 [Zolpidem, zolpidem]
[3]; 20 mg
  AUC: 1110 (36.9) ng/mL.h
[3]
  1/AUC Ratio: 3.34
  AUCi: 332 (56.4) ng/mL.h
[20]; 5 mg
  AUC: 0.235 (70.4) mg/L.h
[20]
  1/AUC Ratio: 2.31
  AUCi: 0.102 (58.1) mg/L.h
[4]; ref (Olubodun et al., 2003), (Patat et al., 1994)
  ka: 2.25 h⁻¹
[5]; in vivo
  Vss (Minimal PBPK): 0.68 L/kg
[1]; in vivo
  CLR: 0.18 L/h
  fe: 0.01
[21]; M3
  rCYP1A2 Vmax: 7.99 µL/min/pmol
  Km: 38 µM
[21]; M4
  rCYP1A2 Vmax: 0.777 µL/min/pmol
  Km: 40 µM
[22]; M3
  rCYP2C9 Vmax: 17.42 µL/min/pmol
  Km: 103 µM
[22]; M4
  rCYP2C9 Vmax: 0.888 µL/min/pmol
  Km: 81 µM
[23]
  rCYP2C19 Vmax: 0.8 µL/min/pmol
[23]; read-out: rCYP2C19 Km
  Km: 133 µM
[24]; M3
  rCYP2D6 Vmax: 1.44 µL/min/pmol
  Km: 190 µM
[24]; M4
  rCYP2D6 Vmax: 4.68 µL/min/pmol
  Km: 214 µM
[25]; M4
  rCYP2J2 Vmax: 6.86 µL/min/pmol
  Km: 399 µM
[25]; M3
  Km: 340 µM

## C=C[C@H]1C[N@@]2CC[C@H]1C[C@@H]2[C@@H](O)c1ccnc2ccc(OC)cc12 [Quinidine, quinidine]
[26]
  pKi: […]
[27]
  pKi: 4.40

## Cc1nnc2n1-c1ccc(Cl)cc1C(c1ccccc1Cl)=NC2 [Triazolam, triazolam]
[3]; 0.5 mg
  AUC: 14.8 (21.4) ng/mL.h
[3]
  1/AUC Ratio: 20.0
  AUCi: 0.74 (59.8) ng/mL.h

## CO[C@H]1/C=C/O[C@@]2(C)Oc3c(C)c(O)c4c(O)c(c(/C=N/N5CCN(C)CC5)c(O)c4c3C2=O)NC(=O)/C(C)=C\C=C\[C@H](C)[C@H](O)[C@@H](C)[C@@H](O)[C@@H](C)[C@H](OC(C)=O)[C@@H]1C [Rifampicin, rifampicin]
[15]; ref (Burman et al., 2001)
  fu: 0.15
[5]; ref (Loos et al., 1985)
  Vss (Minimal PBPK): 0.33 L/kg
[1]; in vivo
  CLiv: 7 L/h
[1]; ref Polk 2001
  CLR: 1.2 L/h

## Cc1nnc2n1-c1ccc(Cl)cc1C(c1ccccc1)=NC2 [Alprazolam, alprazolam]
[3]; 1 mg
  AUC: 242 (31.3) ng/mL.h
[3]
  AUCi: 28.4 (23.9) ng/mL.h
[4]; ref (Smith et al., 1984), (Lin et al., 1988), (Kirkwood et al., 1991), (Amchin et al., 1998), (Greenblatt et al., 1983)
  ka: 3.56 h⁻¹
[5]; in vivo
  Vss (Minimal PBPK): 0.99 L/kg
[1]; in vivo
  CLR: 0.678 L/h
[6]; 4-hydroxylation, corrected for fumic & ISEF, ref Meta-analysis (Hirota et al., 2001), (Galetin et al., 2004) (Williams et al., 2002)
  Km: 211 µM
[6]; second pathway, printed 'oxylation', corrected for fumic & ISEF, ref Meta-analysis (Hirota et al., 2001), (Galetin et al., 2004) (Williams et al., 2002)
  Km: 205 µM

## NC(=O)N1c2ccccc2C2OC2c2ccccc21 (stereo not shown) [Carbamazepine-10,11-epoxide]
[1]; in vivo
  CLR: 0.14 L/h
  CLpo: 6.07 L/h
